Like-named read-outs stand apart in the source and are kept apart here. No end group written: not given here.
Assays:
[1] = test system: L. amazonensis promastigotes; experiment: microbe, parasite or virus in culture; type: cell-based, Leishmania amazonensis; details: read-out: IC50 Promastigote
Description: (§1) The L. amazonensis promastigotes (MPRO/BR/1972/M1841-LV-79) were grown in LIT culture medium, while the L. mexicana promastigotes (MNYC/BZ/62/M379) were cultivated in Schneider’s medium (Sigma-Aldrich, St. Louis, MO, USA), supplemented with 10% heat-inactivated fetal bovine serum (FBS; Gibco/Invitrogen, Waltham, MA, USA) at 28 °C until reaching the mid-log phase of growth. Macrophages were sourced from the peritoneal cavity of Swiss mice using the methodology outlined by de Almeida et al.. Anti-promastigote and anti-amastigote assays of L. mexicana and L. amazonensis and their cytotoxic activity were conducted as previously described. IC50 is the concentration capable of killing 50% of the parasites. The drug concentration that inhibited 50% of cell growth was denoted as the 50% cytotoxic concentration (CC50). Cytotoxicity for the host cells and the protozoan species was compared and expressed as the selectivity index (SI), calculated as the ratio of the CC50 for macrophages to the IC50 for the protozoan species.

peritoneal macrophages = experiment: Cytotoxicity in peritoneal macrophages; type: cell-based; details: peritoneal macrophages of Swiss mice
Description: as §1

LmCPB2.8ΔCTE (CPB) = LmCPB2.8ΔCTE (CPB) (Leishmania mexicana, UniProt P36400); experiment: Cysteine protease (CPB) enzyme inhibition assay; type: biochemical
Chain of LmCPB2.8ΔCTE (CPB) (P36400 126-343, stated change not applied): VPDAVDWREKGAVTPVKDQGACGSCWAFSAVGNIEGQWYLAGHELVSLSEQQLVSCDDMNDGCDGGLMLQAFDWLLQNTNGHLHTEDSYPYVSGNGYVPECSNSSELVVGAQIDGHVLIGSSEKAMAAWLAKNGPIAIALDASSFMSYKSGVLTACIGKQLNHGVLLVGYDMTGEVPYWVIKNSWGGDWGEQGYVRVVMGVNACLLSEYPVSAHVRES
Description: The CPB inhibition experiments were performed as described previously by Moreira et al.. The results are expressed as mean ± standard deviation of two independent replicates as the half maximal CPB enzyme inhibitory concentration (IC50-CPB) using Bioestat 5.0 software.

[2] = POPC–POPS–Erg (16:3:1) LUVs
Description: To evaluate the effect of monomeric and dimeric peptides on the lipid membrane and relate it to the mechanism of action, vesicle permeabilization studies were carried out for evaluating the possible mechanisms on membrane. The leakage assays were carried out with carboxyfluorescein (CF) internalized in the mimetic membranes. The vesicles of POPC–Chol (4:1) and POPC–POPS (phosphatidylserine)–ergosterol (16:3:1) were employed. These mimetic membranes were designed considering the compositions of phospholipids and steroids in the host membrane and in the Leishmania membrane, respectively. The constitution of the cell membrane of Leishmania varies according to the morphology of the parasite and its stage of development, but is more negative than the cell membranes of mammals, which allow for cationic AMPs to bind more easily. Our studies were based on the membrane of the promastigote form, which is characterized by the presence of mainly phosphatidylcholine, phosphatidylethanolamine, phosphatidylinositol, phosphatidylserine, and ergosterol, in addition to diglycerides and glycolipids containing mannose and galactose. In the amastigote form of Leishmania, there is a higher concentration of fatty acids and cholesterol, while triglycerides and ergosterol decrease during the transition from promastigotes to amastigotes. In addition, the main phospholipids found are sphingomyelin and phosphatidylserine, with lower proportions of phosphatidylinositol and lysophosphatidylethanolamine.
Large unilamellar vesicles (LUVs) composed of POPC (1-palmitoyl-2-oleoyl-sn-glycero-3-phosphatidylcholine) and cholesterol (Chol) (4:1), or POPC, POPS (1-palmitoyl-2-oleoyl-sn-glycero-3-serine), and ergosterol (Erg) (16:3:1) were prepared according to the methods described by Lorenzón et al.. […] We employed a Hitachi U-2000 spectrophotometer (TSHa) (Hitachi, Tokyo, Japan) or a Fluorolog-3 FL3-122 spectrofluorometer (Horiba Jobin Yvon, Glasgow, UK) ((TSHa)2K) for analyses.

[3] = test system: L. amazonensis promastigotes; details: read-out: IC50 Promastigote with active fetal bovine serum, LIT medium with active (not heat-inactivated) fetal bovine serum, ± standard deviation, SD
Description: Therefore, stability studies were carried out with these molecules in the presence of the Leishmania parasite in its promastigote form, with active fetal bovine serum added to the culture medium. […] Assays were performed using the TSHa and (TSHa)2K peptides.
Peptide stability was investigated using anti-promastigote assays (as described by Costa et al. 2023 [58]) with L. amazonensis and LIT culture media with fetal bovine serum.

[4] = test system: L. mexicana promastigotes; experiment: microbe, parasite or virus in culture; type: cell-based, Leishmania mexicana; details: ± standard deviation, SD, read-out: IC50 Promastigote
Description: as §1

L. mexicana amastigotes = experiment: microbe, parasite or virus in culture; type: cell-based, Leishmania mexicana; details: ± standard deviation, SD
Description: (§2) Macrophages were sourced from the peritoneal cavity of Swiss mice using the methodology outlined by de Almeida et al.. Anti-promastigote and anti-amastigote assays of L. mexicana and L. amazonensis and their cytotoxic activity were conducted as previously described. […] Cytotoxicity for the host cells and the protozoan species was compared and expressed as the selectivity index (SI), calculated as the ratio of the CC50 for macrophages to the IC50 for the protozoan species.

[5] = test system: L. amazonensis amastigotes; experiment: microbe, parasite or virus in culture; type: cell-based, Leishmania amazonensis; details: read-out: IC50 Amastigote
Description: as §2

With FLSGIVGMLGKLF-NH2 [TSHa] the IC50 [1] was 8 ± 0.1 µM, the “CC50 Peritoneal Macrophages” value (peritoneal macrophages; Table 1, ± standard deviation, SD) was >1000 ± 0.01 µM and the “CC50 Peritoneal Macrophage” value (peritoneal macrophages; Table 2) was >1000 ± 1.8 µM. For the same substance, the “Inhibitory Activity at 20 μmol L^−1” value (LmCPB2.8ΔCTE (CPB); 20 μmol L^−1, mean ± SD of two independent replicates, SD) was 94.22 ± 1.54 %, the inhibition at 20 µM (LmCPB2.8ΔCTE (CPB); 20 μmol L^−1, mean ± SD of two independent replicates, read-out: Inhibitory Activity at 20 μmol L^−1) was > 90% and the IC50 (LmCPB2.8ΔCTE (CPB); mean ± SD of two independent replicates, SD) was 9.2 ± 2.2 µM. The CF release ([2]; peptide 1 µmol L^−1, fluorescence) was “around 70%”, the CF release ([2]; peptide 5 µmol L^−1, fluorescence) was ~85% and the IC50 [3] was 20 ± 2.15 µM. For the same substance, the IC50 [4] was 6.3 ± 0.85 µM, the IC50 (L. mexicana amastigotes; 24 h of treatment, read-out: IC50 Amastigote 24 h of Treatment) was 5 ± 0.05 µM and the IC50 (L. mexicana amastigotes; 48 h of treatment, read-out: IC50 Amastigote 48 h of Treatment) was 8.1 ± 0.45 µM. The IC50 [5] was 6.8 ± 2.82 µM.
